Measured values as given in patent EP1228063B1, “SUBSTITUTED PYRIDINES AND PYRIDAZINES WITH ANGIOGENESIS INHIBITING ACTIVITY” (BAYER CORPORATION, priority 1999, dated 2001).

Key:
KDR kinase domain = molecular target: T1, KDR kinase domain (Homo sapiens, UniProt P35968); assay: KDR Assay (ELISA of poly(Glu4;Tyr1) phosphorylation); assay type: biochemical; conditions: 3.3 µM ATP, 60 minutes at room temperature
T1 construct: The cytosolic kinase domain of KDR kinase was expressed as a 6His fusion protein in Sf9 insect cells; 6His; made in house; host or cells: Sf9 insect cells
Description: The cytosolic kinase domain of KDR kinase was expressed as a 6His fusion protein in Sf9 insect cells. The KDR kinase domain fusion protein was purified over a Ni++ chelating column. Ninety-six well ELISA plates were coated with 5 µg poly(Glu4;Tyr1) (Sigma Chemical Co., St Louis, MO) in 100 µl HEPES buffer (20 mM HEPES, pH 7.5, 150 mM NaCl, 0.02% Thimerosal) at 4° overnight. Before use, the plate was washed with HEPES, NaCl buffer and the plates were blocked with 1% BSA, 0.1% Tween 20 in HEPES, NaCl buffer.
Test compounds were serially diluted in 100% DMSO from 4 mM to 0.12 µM in half-log dilutions. These dilutions were further diluted twenty fold in H2O to obtain compound solutions in 5% DMSO. Following loading of the assay plate with 85 µl of assay buffer (20 mM HEPES, pH 7.5, 100 mM KCI, 10 mM MgCl2, 3 mM MnCl2, 0.05% glycerol, 0.005% Triton X-100, 1 mM -mercaptoethanol, with or without 3.3 µM ATP), 5 µl of the diluted compounds were added to a final assay volume of 100 µl. Final concentrations were between 10 µM, and 0.3 nM in 0.25% DMSO. The assay was initiated by the addition of 10µl (30 ng) of KDR kinase domain.
The assay was incubated with test compound or vehicle alone with gentle agitation at room temperature for 60 minutes. The wells were washed and phosphotyrosines (PY) were probed with an anti-phosphotyrosine (PY), mAb clone 4G10 (Upstate Biotechnology, Lake Placid, NY). PY/anti-PY complexes were detected with an anti-mouse IgG/HRP conjugate (Amersham International plc, Buckinghamshire, England). Phosphotyrosine was quantitated by incubating with 100 µl 3, 3', 5, 5' tetramethylbenzidine solution (Kirkegaard and Perry, TMB Microwell 1 Component peroxidase substrate). Color development was arrested by the addition of 100 µl 1% HCl-based stop solution (Kirkegaard and Perry, TMB I Component Stop Solution).
Optical densities were determined spectrophotometrically at 450 nm in a 96-well plate reader, SpectraMax 250 (Molecular Devices). Background (no ATP in assay) OD values were subtracted from all ODs and the percent inhibition was calculated according to the equation: % Inhibition = ((OD(vehicle control)-OD(with compound)) × 100)/(OD(vehicle control)-OD(no ATP added)) [formula]

[1] = molecular target: T2, NIH3T3 cells expressing the full length KDR receptor (Homo sapiens, UniProt P35968); assay: Cell mechanistic assay - Inhibition of 3T3 KDR phosphorylation; assay type: cell-based; conditions: VEGF (30 ng / ml) stimulated KDR phosphorylation in NIH3T3 cells, 30 minutes preincubation
T2 construct: NIH3T3 cells expressing the full length KDR receptor; expressed in transfected cells; host or cells: NIH3T3 cells (G418 selection)
Description: NIH3T3 cells expressing the full length KDR receptor were grown in DMEM (Life Technologies, Inc., Grand Island, NY) supplemented with 10% newborn calf serum, low glucose, 25 mM /L sodium pyruvate, pyridoxine hydrochloride and 0.2 mg/ ml of G418 (Life Technologies Inc., Grand Island, NY). The cells were maintained in collagen I-coated T75 flasks (Becton Dickinson Labware, Bedford, MA) in a humidified 5% CO2 atmosphere at 37°C.
Fifteen thousand cells were plated into each well of a collagen 1-coated 96-well plate in the DMEM growth medium. Six hours later, the cells were washed and the medium was replaced with DMEM without serum. After overnight culture to quiesce the cells, the medium was replaced by Dulbecco's phosphate-buffered saline (Life Technologies Inc., Grand Island, NY) with 0.1 % bovine albumin (Sigma Chemical Co., St Louis, MO). After adding various concentrations (0-300 nM) of test compounds to the cells in 1% final concentration of DMSO, the cells were incubated at room temperature for 30 minutes. The cells were then treated with VEGF (30 ng / ml) for 10 minutes at room temperature. Following VEGF stimulation, the buffer was removed and the cells were lysed by addition of 150 µl of extraction buffer (50 mM Tris, pH 7.8, supplemented with 10% glycerol, 50 mM BGP, 2 mM EDTA, 10 mM NaF, 0.5 mM NaVO4, and 0.3% TX-100) at 4°C for 30 minutes.
To assess receptor phosphorylation, 100 microliters of each cell lysate was added to the wells of an ELISA plate precoated with 300 ng of antibody C20 (Santa Cruz Biotechnology, Inc., Santa Cruz , CA). Following a 60-minute incubation, the plate was washed and bound KDR was probed for phosphotyrosine using an anti-phosphotyrosine mAb clone 4G10 (Upstate Biotechnology, Lake Placid, NY). The plate was washed and wells were incubated with anti-mouse IgG/HRP conjugate (Amersham International plc, Buckinghamshire, England) for 60 minutes. Wells were washed and phosphotyrosine was quantitated by addition of 100 µl per well of 3,3',5,5' tetramethylbenzidine (Kirkegaard and Perry, TMB Microwell 1 Component peroxidase substrate) solution. Color development was arrested by the addition of 100 µl 1% HCl based stop solution (Kirkegaard and Perry, TMB 1 Component Stop Solution).
Optical densities (OD) were determined spectrophotometrically at 450 nm in a 96-well plate reader (SpectraMax 250, Molecular Devices). Background (no VEGF added) OD values were subtracted from all ODs and percent inhibition was calculated according to the equation: % Inhibition = ((OD(VEGF control)-OD(with test compound)) × 100)/(OD(VEGF control)-OD(no VEGF added)) [formula]
IC50s were determined on some of the exemplary materials with a least squares analysis program using compound concentration versus percent inhibition. Compounds that have IC50 ≤ 20 nM in this assay include those of Examples 2, 6, 10, 11, 14, 23, 96, 101, 102, 103, 104, 105. Compounds that have IC50 values between 20 nM and 50 nM include those of examples 1, 4, 8, 9, 12, 13, 17, 24, 93, 98. Compounds that have IC50 values between 50 nM and 400 nM include those of examples 97, 99, and 100.

T1 sequence (P35968 834-1162 limits assumed): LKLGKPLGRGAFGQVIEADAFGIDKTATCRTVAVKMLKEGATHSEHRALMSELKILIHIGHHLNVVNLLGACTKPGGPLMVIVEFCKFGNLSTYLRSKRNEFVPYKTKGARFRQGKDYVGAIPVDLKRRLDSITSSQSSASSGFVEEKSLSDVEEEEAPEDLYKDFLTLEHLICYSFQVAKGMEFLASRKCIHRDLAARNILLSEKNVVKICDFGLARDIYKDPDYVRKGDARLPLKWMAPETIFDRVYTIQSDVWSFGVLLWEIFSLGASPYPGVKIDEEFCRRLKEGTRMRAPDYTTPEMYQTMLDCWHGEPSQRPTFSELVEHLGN
T2 sequence (P35968 20-1356): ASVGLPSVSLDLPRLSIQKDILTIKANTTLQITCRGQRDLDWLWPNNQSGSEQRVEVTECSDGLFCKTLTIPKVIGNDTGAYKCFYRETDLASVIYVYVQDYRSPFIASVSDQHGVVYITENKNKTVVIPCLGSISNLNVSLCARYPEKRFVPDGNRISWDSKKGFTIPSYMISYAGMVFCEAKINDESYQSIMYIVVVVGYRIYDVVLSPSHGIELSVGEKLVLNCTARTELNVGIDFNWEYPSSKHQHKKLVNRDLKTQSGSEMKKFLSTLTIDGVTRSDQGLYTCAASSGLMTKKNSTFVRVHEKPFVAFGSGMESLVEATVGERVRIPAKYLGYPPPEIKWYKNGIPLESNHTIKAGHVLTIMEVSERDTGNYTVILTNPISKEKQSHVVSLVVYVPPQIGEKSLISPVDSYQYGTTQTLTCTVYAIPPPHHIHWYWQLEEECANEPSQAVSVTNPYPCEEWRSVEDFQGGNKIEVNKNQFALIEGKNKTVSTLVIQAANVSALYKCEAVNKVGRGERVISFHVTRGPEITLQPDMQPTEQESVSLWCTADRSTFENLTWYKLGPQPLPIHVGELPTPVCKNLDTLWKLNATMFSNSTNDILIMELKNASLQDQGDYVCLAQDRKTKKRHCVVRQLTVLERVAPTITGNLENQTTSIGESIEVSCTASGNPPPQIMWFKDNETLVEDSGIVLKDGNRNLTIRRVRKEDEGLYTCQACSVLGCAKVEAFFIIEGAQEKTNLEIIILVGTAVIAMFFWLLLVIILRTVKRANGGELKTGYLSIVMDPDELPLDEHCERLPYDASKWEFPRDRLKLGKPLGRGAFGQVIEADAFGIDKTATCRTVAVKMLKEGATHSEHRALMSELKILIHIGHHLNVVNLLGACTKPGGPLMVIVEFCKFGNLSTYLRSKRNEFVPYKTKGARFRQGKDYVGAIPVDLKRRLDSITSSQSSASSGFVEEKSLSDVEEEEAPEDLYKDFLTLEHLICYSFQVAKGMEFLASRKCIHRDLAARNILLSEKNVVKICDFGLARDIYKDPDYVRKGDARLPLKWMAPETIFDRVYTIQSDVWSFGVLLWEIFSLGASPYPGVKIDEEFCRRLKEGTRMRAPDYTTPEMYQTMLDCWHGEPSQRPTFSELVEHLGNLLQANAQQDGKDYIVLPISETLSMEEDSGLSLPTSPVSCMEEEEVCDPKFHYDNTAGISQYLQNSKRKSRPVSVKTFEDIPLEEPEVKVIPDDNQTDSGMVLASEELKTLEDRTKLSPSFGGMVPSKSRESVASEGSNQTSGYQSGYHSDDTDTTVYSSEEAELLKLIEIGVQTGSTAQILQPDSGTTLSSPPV

`c1ccc2c(Nc3ccc4ncsc4c3)ncc(Sc3ccncc3)c2c1` [Example 3, 1-(benzothiazol-6-ylamino)-4-(4-pyridylthio)isoquinolin] gave an IC50 (KDR kinase domain) of 100 to 1000 nM.
`c1ccc2c(Nc3ccc4ncsc4c3)nnc(Nc3ccc4ncsc4c3)c2c1` [Example 93] was tested, and the IC50 [1] was 20 to 50 nM and the IC50 (KDR kinase domain) was ≤ 100 nM.
For `Clc1ccc(Nc2ncc(Sc3ccncc3)c3ccccc23)cc1` [Example 1, 1-(4-chlorophenylamino)-4-(4-pyridylthio)isoquinolinc], the IC50 [1] was 20 to 50 nM.
Molecule `Cc1ccc(Nc2nnc(Nc3ccc4ncsc4c3)c3sccc23)cc1F` [Example 79] has an IC50 (KDR kinase domain) of 100 to 1000 nM.
With `c1cc2c(Nc3ccc4[nH]ncc4c3)nnc(Nc3ccc4[nH]ncc4c3)c2s1` [Example 27] the IC50 (KDR kinase domain) was 100 to 1000 nM.
Molecule `CNC(=O)c1cc(COc2nnc(Nc3ccc(F)cc3)c3ccsc23)ccn1` [Example 67] has an IC50 (KDR kinase domain) of 100 to 1000 nM.
Work on `CNC(=O)c1cc(COc2nnc(Nc3ccccc3OC)c3ccoc23)ccn1` [Example 50] yielded an IC50 (KDR kinase domain) of 100 to 1000 nM.
`CN(C)CCNC(=O)c1cc(COc2nnc(Nc3ccc(Cl)cc3)c3ccoc23)ccn1` [Example 82A] was tested, and the IC50 (KDR kinase domain) was 100 to 1000 nM.
In the case of `Clc1ccc(Nc2nnc(Nc3ccc4nc[nH]c4c3)c3ccccc23)cc1` [Example 95], the IC50 (KDR kinase domain) is reported as 100 to 1000 nM.
`Clc1ccc(Nc2ncc(Cc3ccncc3)c3ccccc23)cc1` [Example 4, 1-(4-chlorophenylamino)-4-(4-pyridylmethyl)isoquinoline] gave an IC50 [1] of 20 to 50 nM.
Work on `COc1ccc(Nc2nnc(OCc3ccncc3)c3occc23)cc1` [Example 21, 4-(4-methoxyphenylamino)-7-(4-pyridylmethoxy)furo-[2,3-d]pyridazine] yielded an IC50 (KDR kinase domain) of 100 to 1000 nM.
Work on `Clc1ccc(Nc2nnc(Nc3ccc4ncsc4c3)c3occc23)cc1` [Example 48] yielded an IC50 (KDR kinase domain) of 100 to 1000 nM.
For `OCc1cc(COc2nnc(Nc3ccc(Cl)cc3)c3ccoc23)ccn1` [Example 64], the IC50 (KDR kinase domain) was 100 to 1000 nM.
In the case of `Clc1ccc(Nc2nnc(Nc3ccc4ncsc4c3)c3sccc23)cc1` [Example 17, 4-(4-chlorophenylamino)-7-(benzothiazol-6-ylamino)thieno[2,3-d]pyridazine], the IC50 [1] is reported as 20 to 50 nM.
Molecule `CCN(c1ccc(Nc2nnc(Nc3ccc4ncsc4c3)c3ccccc23)cc1)C(C)C` [Example 100] has an IC50 [1] of 50 to 400 nM and an IC50 (KDR kinase domain) of 100 to 1000 nM.
For `c1nc2ccc(Nc3nnc(Nc4ccc5c(c4)CCC5)c4ccsc34)cc2s1` [Example 18, 4-(indan-5-ylamino)-7-(benzothiazol-6-ylamino)thieno-[2,3-d]pyridazine], the IC50 (KDR kinase domain) was ≤ 100 nM.
For `c1ccc2c(Nc3ccc4ncsc4c3)ncc(Cc3ccncc3)c2c1` [Example 5, 1-(benzothiazol-6-ylamino)-4-(4-pyridylmethyl)-isoquinoline], the IC50 (KDR kinase domain) was 100 to 1000 nM.
`Cc1ccc(Nc2nnc(Nc3ccc4ncsc4c3)c3ccccc23)cc1F` [Example 104] was tested, and the IC50 [1] was ≤ 20 nM and the IC50 (KDR kinase domain) was ≤ 100 nM.
`CNC(=O)c1cc(COc2nnc(Nc3ccc4[nH]ncc4c3)c3ccoc23)ccn1` [Example 55] gave an IC50 (KDR kinase domain) of 100 to 1000 nM.
For `c1cc2c(Nc3ccc4ncsc4c3)nnc(Nc3ccc4ncsc4c3)c2o1` [Example 28], the IC50 (KDR kinase domain) was 100 to 1000 nM.
With `FC1(F)Oc2ccc(Nc3nnc(Nc4ccc5ncsc5c4)c4ccccc34)cc2O1` [Example 98] the IC50 [1] was 20 to 50 nM.
`O=C(c1cc(COc2nnc(Nc3ccc(Cl)cc3)c3ccoc23)ccn1)N1CCOCC1` [Example 61] showed an IC50 (KDR kinase domain) of 100 to 1000 nM.
With `c1ccc2c(Nc3ccc4ncsc4c3)nnc(Nc3ccc(N4CCCCC4)cc3)c2c1` [Example 99] the IC50 [1] was 50 to 400 nM and the IC50 (KDR kinase domain) was 100 to 1000 nM.
Molecule `CNC(=O)c1cc(COc2nnc(Nc3ccc(N(C)C(C)=O)cc3)c3ccoc23)ccn1` [Example 45] has an IC50 (KDR kinase domain) of 100 to 1000 nM.
`CNC(=O)c1cc(COc2nnc(Nc3ccc(N4CCOCC4)cc3)c3ccoc23)ccn1` [Example 46] showed an IC50 (KDR kinase domain) of 100 to 1000 nM.
`CNC(=O)c1cc(COc2nnc(Nc3ccc(F)c(Cl)c3)c3ccoc23)ccn1` [Example 36] showed an IC50 (KDR kinase domain) of 100 to 1000 nM.
`Brc1ccc2c(c1)CCN2c1nnc(Nc2ccc3ncsc3c2)c2ccccc12` [Example 97] gave an IC50 [1] of 50 to 400 nM.
With `Oc1ccc(Nc2nnc(OCc3ccncc3)c3occc23)cc1` [Example 58] the IC50 (KDR kinase domain) was 100 to 1000 nM.
Work on `NC(=O)c1cc(Cc2cnc(Nc3ccc(Cl)cc3)c3ccccc23)ccn1` [Example 12, 1-(4-chlorophenylamino)-4-(2-aminocarbonyl-4-pyridylmethyl)isoquinolin] yielded an IC50 [1] of 20 to 50 nM.
Molecule `CNC(=O)c1cc(COc2nnc(Nc3cccc(Cl)c3)c3ccoc23)ccn1` [Example 35] has an IC50 (KDR kinase domain) of 100 to 1000 nM.
In the case of `CNC(=O)c1cc(Cc2cnc(Nc3ccc(Cl)cc3)c3ccccc23)ccn1` [Example 13, 1-(4-chlorophenylamino)-4-(2-methylaminocarbonyl-4-pyridylmethyl)isoquinoline], the IC50 [1] is reported as 20 to 50 nM.
